According to patent US6825230B2, “Spiro and dispiro 1,2,4-trixolane antimalarials” (Medicines for Malaria Venture MMV, priority 2002, dated 2004):
≈ marks a conversion by molar mass, not a printed value. Structures can show the parent of a compound that is named as a salt. Where two headings read alike, the source gives them in different places.

Tests used:
[1] = tested on: Schistosoma mansoni 21-day-old schistosomules; test: Effect on 21-day-old schistosomules in infected mice; assay type: in vivo; conditions: for % reduction of schistosomule growth at day 21 after per os application of 200 mg/kg, FWR (%): female worm reduction rate
Description: Mice were infected with 100 Schistosoma mansoni cercariae on day 21 post-treatment. Each group was treated per os with trioxolanes at a single dose of 200 mg/kg. […] All groups were killed 4 weeks after treatment and the liver and intestine were removed and separated. The liver and intestine were compressed and alive male and female worms could be seen and counted. The effect of the compounds was evaluated by mean total and female worm burden.

[2] = tested on: Schistosoma mansoni adult worms (49-day-old); test: Effect on adult schistosomes (49-day-old) in infected mice; assay type: in vivo; conditions: for % reduction of adult worms growth at day 49 after per os application of 400 mg/kg, TWR (%) / Adult worms day 49, per os 400 mg/kg, DEAD WORM (%): single 400 mg/kg per os
Description: Mice were infected with 100 Schistosoma mansoni cercariae on day 49 post-treatment. Each group was treated per os with OZ compounds at single doses of 200, 400, and 600 mg/kg. Untreated mice served as the control. All groups were killed 4 weeks after treatment and the liver and intestine were removed and separated. The liver and intestine were compressed and alive male and female worms could be seen and counted.

[3] = tested on: ANKA strain of Plasmodium berghei; test: Single dose ED50/ED90/ED99 determination in infected mice; assay type: in vivo
Description: In the single dose ED50/ED98/ED99 determinations, Moro SPF or NMRI mice (group of three) infected with the ANKA strain of Plasmodium berghei were treated on day one post-infection. […] The SSV consists of 0.5% w/v CMC, 0.5% v/v benzyl alcohol, 0.4% v/v Tween 80, and 0.9% w/v sodium chloride in water. Antimalarial activity was measured by percent reduction in parasitemia on day three post-infection. The ED50/ED90 values were calculated by nonlinear fitting.
The ED50, ED90, and ED99 values were calculated by non-linear fitting with statistical program and were expressed in mg/kg.

[4] = tested on: chloroquine-resistant K1 strain of P. falciparum; test: In vitro antimalarial semiautomated microdilution assay ([3H]-hypoxanthine incorporation), K1 strain; assay type: cell-based, Plasmodium falciparum; conditions: Plasmodium falciparum
Procedure, shortened: (§1)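 IC50 comes from Logit regression of [3H]-hypoxanthine incorporation data. Intraerythrocytic P. falciparum taken from asynchronous stock cultures is exposed to OZ compounds in a semiautomated microdilution format.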

[5] = tested on: chloroquine-sensitive NF54 strain of P. falciparum; test: In vitro antimalarial semiautomated microdilution assay ([3H]-hypoxanthine incorporation), NF54 strain; assay type: cell-based, Plasmodium falciparum; conditions: Plasmodium falciparum
Procedure, shortened: as §1

[6] = tested on: ANKA strain of P. berghei; test: Single dose STI in vivo screen in infected mice; parameters: species or system Plasmodium berghei; conditions: for Survival (days) 10 mg/kg po: single 10 mg/kg po in 3% ethanol and 7% Tween 80; for Survival (days) 10 mg/kg po / Survival (days) 10 mg/kg SSV po / Survival (days) 10 mg/kg sc: untreated 6-7 days; for Activity (%) 10 mg/kg po: single 10 mg/kg po in 3% ethanol and 7% Tween 80 on day 1 post-infection; for Survival (days) 10 mg/kg SSV po: single 10 mg/kg po in SSV; for Activity (%) 10 mg/kg SSV po: single 10 mg/kg po in standard suspending vehicle (SSV) on day 1 post-infection; for Survival (days) 10 mg/kg sc: single 10 mg/kg sc in 3% ethanol and 7% Tween 80; for Activity (%) 10 mg/kg sc: single 10 mg/kg sc in 3% ethanol and 7% Tween 80 on day 1 post-infection
[7] = tested on: P. berghei ANKA strain; test: Divided 3x10 mg/kg vs single 1x30 mg/kg po dose in infected mice; assay type: in vivo, Plasmodium berghei; conditions: 10 mg/kg po on days 1, 2, 3 post-infection
Description: (§2) Moro NMRI male mice (Fu Albino specific pathogen free) weighing 18±2 g were infected intravenously (i.v.) with 2×10^7 P. berghei ANKA strain-infected erythrocytes from donor mice on day 0 of the experiment. From donor mice with circa 30% parasitemia, heparinized blood was taken and diluted in physiological saline to 10^8 parasitized erythrocytes per ml. An aliquot (0.2 ml) of this suspension was injected i.v. into experimental and control groups of mice. […] Throughout the experiments, mice were kept in groups of three or five animals in Makrolon type II cages in an air-conditioned animal room at 22 to 23° C.
(§3) They were administered per os (p.o.) in a total volume of 0.01 ml per gram of mouse. The activity of the compound was determined by a variety of methods outlined in subsequent sections. Survival time was also recorded, and survival to day 30 post-infection was considered to be a cure.
The first experiment conducted consisted of administration of a divided 3×10 mg/kg p.o. dose administered on days 1, 2, and 3 post-infection vs. a single 1×30 mg/kg po dose administered on day 1 post-infection. On day 4 post-infection, blood smears of all animals were prepared and stained with Giemsa. […] Compounds were administered orally in the SSV vehicle.

[8] = tested on: P. berghei ANKA strain; test: Divided 3x3 mg/kg and 3x1 mg/kg po doses in infected mice; assay type: in vivo, Plasmodium berghei; conditions: for Activity (%): percent reduction of parasitemia vs control on day 4
Description: as §2, §3
The second experiment consists of administration of divided 3×3 mg/kg and 3×1 mg/kg po doses administered on days 1, 2, and 3 post-infection. On day 4 post-infection, blood smears of all animals were prepared and stained with Giemsa. […] Compounds were administered orally in the SSV vehicle.

[9] = single 200 mg/kg per os, 21-day-old schistosomules
[10] = 49-day-old adults, total worm reduction rate
[11] = percentage of dead worm in the liver
[12] = single dose po in SSV on day 1 post-infection, parasitemia day 3, nonlinear fitting
[13] = Plasmodium berghei, single dose po in SSV on day 1 post-infection, parasitemia day 3, nonlinear fitting, read-out: ED50
[14] = K1, 72 h, read-out: IC50 (ng/ml) K1, chloroquine-resistant K1 strain, 72 h incubation
[15] = NF54, 72 h, read-out: IC50 (ng/ml) NF54, chloroquine-sensitive NF54 strain, 72 h incubation
[16] = percent reduction in parasitemia on day 3, hydrochloride, 10 mg/kg
[17] = Plasmodium berghei, po, single dose po in SSV on day 1 post-infection, parasitemia day 3, nonlinear fitting
[18] = percent reduction in parasitemia on day 3
[19] = percent reduction in parasitemia on day 3, 10 mg/kg
[20] = 3 × 1 mg/kg p.o. SSV on days 1, 2, 3 post-infection
[21] = 3 × 3 mg/kg p.o. SSV on days 1, 2, 3 post-infection

| SMILES | % reduction of schistosomule growth at day 21 after per os application of 200 mg/kg, FWR (%) [1, 9] | % reduction of adult worms growth at day 49 after per os application of 400 mg/kg, TWR (%) [2, 10] | Adult worms day 49, per os 400 mg/kg, DEAD WORM (%) [2, 11] | ED99 [3, 12] | ED90 [3, 12] | IC50 [4, 14] | IC50 [5, 15] | ED50 [3, 17] | Survival (days) 10 mg/kg po [6] | Activity (%) 10 mg/kg po [6, 18] | Survival (days) 10 mg/kg SSV po [6] | Activity (%) 10 mg/kg SSV po [6, 18] | Survival (days) 10 mg/kg sc [6] | Activity (%) 10 mg/kg sc [6, 18] | also measured |
| --- | --- | --- | --- | --- | --- | --- | --- | --- | --- | --- | --- | --- | --- | --- | --- |
| O=C1CCC2(CC1)OOC1(O2)C2CC3CC(C2)CC1C3 (stereo not drawn) [OZ05] | 88% | 23% | 32% | 15 mg/kg | – | – | – | – | – | – | – | – | – | – | % reduction of schistosomule growth at day 21 after per os application of 200 mg/kg, TWR (%) ([1]; po, 200 mg/kg, 504 h): 90%; % reduction of adult worms growth at day 49 after per os application of 200 mg/kg, TWR (%) ([2]; single 200 mg/kg per os, 49-day-old adults, total worm reduction rate): 46%; Adult worms day 49, per os 200 mg/kg, DEAD WORM (%) ([2]; single 200 mg/kg per os, percentage of dead worm in the liver): 12%; % reduction of adult worms growth at day 49 after per os application of 600 mg/kg, TWR (%) ([2]; single 600 mg/kg per os, 49-day-old adults, total worm reduction rate): 70%; Adult worms day 49, per os 600 mg/kg, DEAD WORM (%) ([2]; single 600 mg/kg per os, percentage of dead worm in the liver): 58%; ED90 ([3]; po): 12 mg/kg |
| c1ccc(C2CCC3(CC2)OOC2(O3)C3CC4CC(C3)CC2C4)cc1 (stereo not drawn) [OZ27] | 58% | 20% | 10% | 9.9 mg/kg | 5.7 mg/kg | – | – | – | – | – | – | – | – | – | % reduction of schistosomule growth at day 21 after per os application of 200 mg/kg, TWR (%) ([1]; po, 200 mg/kg, 504 h): 63%; ED50 [3, 13]: 2.9 mg/kg |
| c1cn(C[C@H]2CC[C@]3(CC2)OOC2(O3)C3CC4CC(C3)CC2C4)cn1 (stereo partly drawn) [OZ179] | – | – | – | 6.6 mg/kg | 3.3 mg/kg | 1.3 ng/mL (≈ 3.77 nM) | 1.1 ng/mL (≈ 3.19 nM) | 1.4 mg/kg | – | – | – | – | – | – | Survival (days) 10 mg/kg po ([6]; hydrochloride, 10 mg/kg): 11.3 days; Activity (%) 10 mg/kg po [6, 16]: 99.91%; Survival (days) 10 mg/kg SSV po ([6]; hydrochloride, 10 mg/kg): 10.3 days; Activity (%) 10 mg/kg SSV po [6, 16]: 99.78%; Survival (days) 10 mg/kg sc ([6]; hydrochloride, 10 mg/kg): 11.3 days; Activity (%) 10 mg/kg sc [6, 16]: 99.91% |
| CC(C)(O)C[C@H]1CC[C@]2(CC1)OOC1(O2)C2CC3CC(C2)CC1C3 (stereo partly drawn) [OZ205] | 83% | 0% | 12% | 6.0 mg/kg | 3.3 mg/kg | 1.5 ng/mL (≈ 4.46 nM) | 2 ng/mL (≈ 5.94 nM) | 1.6 mg/kg | 10.0 days | 99.96% | 8.7 days | 99.94% | 9.7 days | 99.96% | % reduction of schistosomule growth at day 21 after per os application of 200 mg/kg, TWR (%) ([1]; single 200 mg/kg per os, 21-day-old schistosomules, total worm reduction rate): 84% |
| c1cn(CC[C@H]2CC[C@]3(CC2)OOC2(O3)C3CC4CC(C3)CC2C4)cn1 (stereo partly drawn) [OZ219] | – | – | – | 5.2 mg/kg | – | – | – | – | 8.7 days | 99.89% | 8.0 days | 99.82% | 9.3 days | 99.91% | IC50 ([4]; chloroquine-resistant K1 strain, 72 h incubation, read-out: IC50 (ng/ml) K1): 0.85 ng/mL (≈ 2.37 nM); IC50 ([5]; chloroquine-sensitive NF54 strain, 72 h incubation, read-out: IC50 (ng/ml) NF54): 1.6 ng/mL (≈ 4.46 nM); ED50 [3, 13]: 1.6 mg/kg; ED90 ([3]; po): 3.0 mg/kg |
| CN1CCN(C(=O)C[C@H]2CC[C@]3(CC2)OOC2(O3)C3CC4CC(C3)CC2C4)CC1 (stereo partly drawn) [OZ227] | – | – | – | 6.2 mg/kg | 4.0 mg/kg | 0.2 ng/mL (≈ 0.494 nM) | 0.2 ng/mL (≈ 0.494 nM) | 2.3 mg/kg | 8.3 days | 99.68% | 9.3 days | 99.90% | 10.7 days | 99.84% | – |
| c1ncn(C[C@H]2CC[C@]3(CC2)OOC2(O3)C3CC4CC(C3)CC2C4)n1 (stereo partly drawn) [OZ235, cis-Adamantane-2-spiro-3′-8′-(1′H-1′,2′,4′-triazol-1′-ylmethyl)-1′,2′,4-trioxaspiro[4.5]decane mesylate] | – | – | – | 11 mg/kg | 7.1 mg/kg | 1 ng/mL | 2 ng/mL | – | – | – | – | – | – | – | Survival (days) 10 mg/kg po ([6]; 10 mg/kg): 8.7 days; Activity (%) 10 mg/kg po [6, 19]: 99.92%; Survival (days) 10 mg/kg SSV po ([6]; 10 mg/kg): 9.0 days; Activity (%) 10 mg/kg SSV po [6, 19]: 99.97%; Survival (days) 10 mg/kg sc ([6]; 10 mg/kg): 8.0 days; Activity (%) 10 mg/kg sc [6, 19]: 97%; ED50 [3, 12]: 4.0 mg/kg |
| c1cc(OC[C@H]2CC[C@]3(CC2)OO[C@]2(O3)C3CC4CC(C3)CC2C4)ccn1 [OZ301] | – | – | – | – | – | – | – | – | – | – | 11.8 days | 100% | – | – | Survival (days) 3 mg/kg SSV po ([6]; single 3 mg/kg po in SSV): 8.4 days; Activity (%) 3 mg/kg SSV po ([6]; single 3 mg/kg po in SSV, percent reduction in parasitemia on day 3): 97%; Survival (days) 3 × 10 mg/kg p.o. SSV [7]: >30 days; Activity (%) 3 × 10 mg/kg p.o. SSV ([7]; parasitemia reduction on day 4): 100%; Cured infected mice at the 3×3 mg/kg dose ([8]; 3 mg/kg po (SSV) on days 1, 2, 3 post-infection): 1/5; Survival [8, 20]: 8.8 days; Activity (%) [8, 20]: 58%; Survival [8, 21]: 23 days; Activity (%) [8, 21]: 100% |
